From ChEMBL document CHEMBL2073750, “Differential interaction of 3-hydroxy-3-methylglutaryl-coa reductase inhibitors with ABCB1, ABCC2, and OATP1B1” (Drug Metab Dispos, 2005)

Experiments:
Assay type in all cases: functional, cell-based
[1] = target: T1, Solute carrier organic anion transporter family member 1B1 (Homo sapiens, UniProt Q9Y6L6); experiment: TP_TRANSPORTER: inhibition of estradiol-17beta-glucuronide uptake(estradiol-17beta-glucuronide:0.02uM) in OATP1B1-expressing HEK293 cells
T1 sequence (Q9Y6L6 whole entry): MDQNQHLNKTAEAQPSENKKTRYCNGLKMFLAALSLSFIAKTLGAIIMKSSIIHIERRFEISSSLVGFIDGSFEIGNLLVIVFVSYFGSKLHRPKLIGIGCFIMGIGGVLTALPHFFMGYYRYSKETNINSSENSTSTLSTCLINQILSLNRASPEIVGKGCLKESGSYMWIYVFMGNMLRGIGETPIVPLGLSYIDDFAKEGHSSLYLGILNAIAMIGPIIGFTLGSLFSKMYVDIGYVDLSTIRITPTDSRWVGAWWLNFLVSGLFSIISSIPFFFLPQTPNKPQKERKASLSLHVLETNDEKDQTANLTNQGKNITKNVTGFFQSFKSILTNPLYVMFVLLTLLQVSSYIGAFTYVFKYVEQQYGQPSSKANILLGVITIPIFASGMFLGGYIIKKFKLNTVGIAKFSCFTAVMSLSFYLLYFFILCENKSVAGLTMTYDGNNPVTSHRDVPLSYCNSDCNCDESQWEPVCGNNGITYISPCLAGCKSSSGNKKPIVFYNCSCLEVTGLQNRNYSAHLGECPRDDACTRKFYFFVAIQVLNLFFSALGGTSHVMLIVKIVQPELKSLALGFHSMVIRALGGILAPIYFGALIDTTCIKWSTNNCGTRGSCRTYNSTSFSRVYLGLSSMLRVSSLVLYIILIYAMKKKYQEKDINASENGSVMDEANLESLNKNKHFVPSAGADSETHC

[2] = target: ATP-binding cassette sub-family C member 2 (Homo sapiens, UniProt Q92887); experiment: TP_TRANSPORTER: inhibition of calcein-AM efflux in MRP2-expressing MDCK cells
ATP-binding cassette sub-family C member 2, sequence (Q92887 whole entry): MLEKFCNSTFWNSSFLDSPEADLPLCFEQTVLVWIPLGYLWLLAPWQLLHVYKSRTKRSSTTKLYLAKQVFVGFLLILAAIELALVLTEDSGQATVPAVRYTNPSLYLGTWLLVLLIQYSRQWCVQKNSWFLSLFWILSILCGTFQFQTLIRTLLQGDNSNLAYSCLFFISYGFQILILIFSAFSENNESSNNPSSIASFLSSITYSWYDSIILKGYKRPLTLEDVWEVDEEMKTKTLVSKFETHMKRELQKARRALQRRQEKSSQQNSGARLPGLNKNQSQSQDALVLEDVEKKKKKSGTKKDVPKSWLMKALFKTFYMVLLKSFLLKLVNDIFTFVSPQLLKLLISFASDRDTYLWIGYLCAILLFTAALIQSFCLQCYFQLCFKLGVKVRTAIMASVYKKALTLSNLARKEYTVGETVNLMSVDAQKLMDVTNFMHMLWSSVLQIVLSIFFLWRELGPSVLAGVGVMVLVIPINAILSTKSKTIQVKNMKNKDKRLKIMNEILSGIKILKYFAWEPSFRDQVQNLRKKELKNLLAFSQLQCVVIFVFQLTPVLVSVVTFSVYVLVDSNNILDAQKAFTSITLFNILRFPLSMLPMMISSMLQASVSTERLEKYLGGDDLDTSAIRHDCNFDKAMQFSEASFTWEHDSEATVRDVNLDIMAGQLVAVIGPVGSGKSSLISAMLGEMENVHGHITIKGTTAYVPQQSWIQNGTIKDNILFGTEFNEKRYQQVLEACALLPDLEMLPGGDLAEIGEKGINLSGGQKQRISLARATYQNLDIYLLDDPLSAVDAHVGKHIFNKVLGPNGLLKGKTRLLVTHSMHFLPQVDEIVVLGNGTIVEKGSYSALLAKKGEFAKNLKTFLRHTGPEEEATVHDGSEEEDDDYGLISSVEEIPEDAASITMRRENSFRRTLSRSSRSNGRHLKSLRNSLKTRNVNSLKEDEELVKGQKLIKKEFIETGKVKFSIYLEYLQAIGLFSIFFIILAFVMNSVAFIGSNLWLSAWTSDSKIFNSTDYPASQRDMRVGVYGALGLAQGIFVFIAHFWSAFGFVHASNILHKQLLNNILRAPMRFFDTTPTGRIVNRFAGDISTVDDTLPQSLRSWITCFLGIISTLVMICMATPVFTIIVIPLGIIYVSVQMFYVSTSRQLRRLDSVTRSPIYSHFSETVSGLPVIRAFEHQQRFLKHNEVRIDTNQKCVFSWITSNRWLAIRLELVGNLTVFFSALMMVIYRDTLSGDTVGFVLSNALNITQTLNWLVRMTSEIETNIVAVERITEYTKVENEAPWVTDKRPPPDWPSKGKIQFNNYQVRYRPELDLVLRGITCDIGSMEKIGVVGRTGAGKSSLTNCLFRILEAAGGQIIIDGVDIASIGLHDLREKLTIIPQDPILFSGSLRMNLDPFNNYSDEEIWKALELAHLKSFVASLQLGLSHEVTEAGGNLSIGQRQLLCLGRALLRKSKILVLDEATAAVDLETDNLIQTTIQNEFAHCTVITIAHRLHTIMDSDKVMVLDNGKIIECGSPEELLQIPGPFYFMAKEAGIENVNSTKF

[3] = target: ATP-dependent translocase ABCB1 (Homo sapiens, UniProt P08183); experiment: TP_TRANSPORTER: inhibition of calcein-AM efflux in MDR1-expressing MDCK cells
ATP-dependent translocase ABCB1, sequence (P08183 whole entry): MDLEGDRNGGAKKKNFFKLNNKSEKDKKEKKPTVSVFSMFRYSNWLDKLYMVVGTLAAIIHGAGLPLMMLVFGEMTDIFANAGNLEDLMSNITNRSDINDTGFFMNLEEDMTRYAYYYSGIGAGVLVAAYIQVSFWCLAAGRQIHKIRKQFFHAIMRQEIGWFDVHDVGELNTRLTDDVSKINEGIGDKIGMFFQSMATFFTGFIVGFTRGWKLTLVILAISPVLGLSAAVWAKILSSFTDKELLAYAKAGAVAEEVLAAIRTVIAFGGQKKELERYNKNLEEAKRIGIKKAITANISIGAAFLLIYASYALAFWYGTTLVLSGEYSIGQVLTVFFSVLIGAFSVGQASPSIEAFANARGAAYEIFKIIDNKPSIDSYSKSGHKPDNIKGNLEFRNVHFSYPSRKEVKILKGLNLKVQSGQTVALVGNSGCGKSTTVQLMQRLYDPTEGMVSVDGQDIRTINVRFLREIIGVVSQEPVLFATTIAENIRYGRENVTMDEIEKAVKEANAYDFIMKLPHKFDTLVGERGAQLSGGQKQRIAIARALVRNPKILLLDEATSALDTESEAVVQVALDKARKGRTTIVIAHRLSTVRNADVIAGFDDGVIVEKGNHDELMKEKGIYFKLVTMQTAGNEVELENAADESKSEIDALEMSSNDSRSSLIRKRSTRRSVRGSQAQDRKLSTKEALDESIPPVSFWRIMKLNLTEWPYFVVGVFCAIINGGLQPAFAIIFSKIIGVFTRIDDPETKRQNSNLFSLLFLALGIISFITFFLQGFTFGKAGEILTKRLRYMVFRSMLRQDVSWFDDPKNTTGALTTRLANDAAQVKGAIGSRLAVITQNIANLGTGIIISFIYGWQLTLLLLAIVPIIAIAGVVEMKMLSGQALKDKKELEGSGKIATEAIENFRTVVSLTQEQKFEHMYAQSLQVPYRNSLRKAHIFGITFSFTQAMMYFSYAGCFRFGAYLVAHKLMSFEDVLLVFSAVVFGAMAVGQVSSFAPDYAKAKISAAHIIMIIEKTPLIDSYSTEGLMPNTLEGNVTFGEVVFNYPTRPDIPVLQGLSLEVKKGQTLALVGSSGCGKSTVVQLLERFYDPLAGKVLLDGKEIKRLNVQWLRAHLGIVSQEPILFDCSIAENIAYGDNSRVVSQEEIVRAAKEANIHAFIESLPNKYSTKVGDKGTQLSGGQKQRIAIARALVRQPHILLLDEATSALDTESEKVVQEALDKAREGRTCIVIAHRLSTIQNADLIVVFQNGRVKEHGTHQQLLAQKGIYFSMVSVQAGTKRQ

| Compound | IC50 ([1]; read-out: IC50) | IC50 ([2]; read-out: IC50) | IC50 ([3]; read-out: IC50) | IC50 ([2]; mdck) | IC50 ([3]; mdck) | IC50 ([1]; hek293) |
| --- | --- | --- | --- | --- | --- | --- |
| CC(C)c1c(C(=O)Nc2ccccc2)c(-c2ccccc2)c(-c2ccc(F)cc2)n1CC[C@@H]1C[C@@H](O)CC(=O)O1 [ATORVASTATIN LACTONE] | 2.6 µM | 15 µM | 14 µM |  |  |  |
| CC(C)c1c(C(=O)Nc2ccccc2)c(-c2ccccc2)c(-c2ccc(F)cc2)n1CC[C@@H](O)C[C@@H](O)CC(=O)O [ATORVASTATIN] |  |  |  | is not an inhibitor [IC50=-(>100uM)] | is not an inhibitor [IC50=-(>100uM)] |  |
| CC[C@H](C)C(=O)O[C@H]1C[C@@H](C)C=C2C=C[C@H](C)[C@H](CC[C@@H]3C[C@@H](O)CC(=O)O3)[C@H]21 [LOVASTATIN] | 28 µM |  |  | is not an inhibitor [IC50=-(>33uM)] |  |  |
| CO[C@H]1/C=C/O[C@@]2(C)Oc3c(C)c(O)c4c(O)c(cc(O)c4c3C2=O)NC(=O)/C(C)=C\C=C\[C@H](C)[C@H](O)[C@@H](C)[C@@H](O)[C@@H](C)[C@H](OC(C)=O)[C@@H]1C [RIFAMYCIN] | 0.23 µM |  |  |  |  |  |
| CC[C@]1(O)C[C@@H]2CN(CCc3c([nH]c4ccccc34)[C@@](C(=O)OC)(c3cc4c(cc3OC)N(C)[C@H]3[C@@](O)(C(=O)OC)[C@H](OC(C)=O)[C@]5(CC)C=CCN6CC[C@]43[C@@H]65)C2)C1 [VINBLASTINE] |  | 21 µM |  |  |  |  |

Further lines, results first:

| IC50 ([1]; read-out: IC50) | IC50 ([2]; read-out: IC50) | IC50 ([3]; read-out: IC50) | IC50 ([2]; mdck) | IC50 ([3]; mdck) | IC50 ([1]; hek293) | Compound |
| --- | --- | --- | --- | --- | --- | --- |
| 4 µM |  |  | is not an inhibitor [IC50=-(>100uM)] | is not an inhibitor [IC50=-(>100uM)] |  | CC[C@H](C)C(=O)O[C@H]1C[C@@H](C)C=C2C=C[C@H](C)[C@H](CC[C@@H](O)C[C@@H](O)CC(=O)O)[C@H]21 [LOVASTATIN ACID] |
|  |  |  | is not an inhibitor [IC50=-(>100uM)] | is not an inhibitor [IC50=-(>100uM)] | is not an inhibitor [IC50=-(>100uM)] | CC[C@H](C)C(=O)O[C@H]1C[C@H](O)C=C2C=C[C@H](C)[C@H](CC[C@@H](O)C[C@@H](O)CC(=O)O)[C@H]21 [PRAVASTATIN] |
| 3.6 µM |  |  | is not an inhibitor [IC50=-(>100uM)] | is not an inhibitor [IC50=-(>100uM)] |  | CCC(C)(C)C(=O)O[C@H]1C[C@@H](C)C=C2C=C[C@H](C)[C@H](CC[C@@H](O)C[C@@H](O)CC(=O)O)[C@H]21 [TENIVASTATIN] |
